Measured values published in paper PMC12469269, “Investigating SMR Peptide Interactions with Breast Cancer-Associated Proteins” (International Journal of Molecular Sciences, 2025).
Where no end group is shown, it is not given here.

Key:
Jurkat T cells = assay: exNef secretion, Mortalin scanning peptides (Figure 5A), Jurkat T cells; assay type: cell-based; details: 50 ng / 200 μL peptide, 250 ng Nef-GFP plasmid, 48 h, GFP fluorescence in media; SMRmut = 100; mean of three independent experiments
Method: To determine whether Mortalin-derived peptides can inhibit the secretion of extracellular Nef (exNef), Jurkat T cells were co-transfected with wild-type Nef-GFP and various scanning peptides derived from the substrate-binding domain of Mortalin (#56–#67). SMRwt and SMRmut peptides were included as positive and negative controls, respectively. After 48 h of incubation, GFP fluorescence in the culture media was measured as a proxy for exNef secretion.
(§1) Figure 5 Effects of Mortalin-derived peptides on inhibition of exNef and tumor exosome secretion. (A) Jurkat T cells were co-transfected with 250 ng of wild-type Nef-GFP plasmid and 50 ng of Mortalin-derived scanning peptides (#56–#67), including SMRwt and SMRmut as positive and negative controls. After 48 h, GFP fluorescence in culture media was measured to assess exNef secretion. Data represent mean ± SD from three independent experiments. Statistical significance was determined using a two-sample t-test assuming equal variances. (B) MDA-MB-231 cells were transfected with 50 ng of Mortalin-derived scanning peptides (#56–#67), including SMRwt and SMRmut controls. Cells were labeled with N-Rh-PE and incubated for 48 h. N-Rh-PE fluorescence in culture media was measured to assess exosome secretion. Data represent mean ± SD from three independent experiments. Statistical significance was determined using a two-sample t-test assuming equal variances. TEXT PRINTED IN THE PICTURE: (A) #56: Jurkat GFP (%): 117.84 (50 ng / 200 μL) | (A) #57: Jurkat GFP (%): 96.69 (50 ng / 200 μL) | (A) #58: Jurkat GFP (%): 91.89 (50 ng / 200 μL) | (A) #59: Jurkat GFP (%): 95.49 (50 ng / 200 μL) | (A) #60: Jurkat GFP (%): 98.25 (50 ng / 200 μL) | (A) #61: Jurkat GFP (%): 0.65 (50 ng / 200 μL) | (A) #62: Jurkat GFP (%): 0.51 (50 ng / 200 μL) | (A) #63: Jurkat GFP (%): 98.02 (50 ng / 200 μL) | (A) #64: Jurkat GFP (%): 95.37 (50 ng / 200 μL) | (A) #65: Jurkat GFP (%): 96.34 (50 ng / 200 μL) | (A) #66: Jurkat GFP (%): 92.28 (50 ng / 200 μL) | (A) #67: Jurkat GFP (%): 99.56 (50 ng / 200 μL) | (A) SMRwt: Jurkat GFP (%): 0.51 (50 ng / 200 μL) | (A) SMRmut: Jurkat GFP (%): 100 (50 ng / 200 μL) | (B) #56: MDA-MB-231 N-Rh-PE (%): 66.31 (50 ng / 200 μL) | (B) #57: MDA-MB-231 N-Rh-PE (%): 79.73 (50 ng / 200 μL) | (B) #58: MDA-MB-231 N-Rh-PE (%): 68.11 (50 ng / 200 μL) | (B) #59: MDA-MB-231 N-Rh-PE (%): 67.81 (50 ng / 200 μL) | (B) #60: MDA-MB-231 N-Rh-PE (%): 72.32 (50 ng / 200 μL) | (B) #61: MDA-MB-231 N-Rh-PE (%): 7.53 (50 ng / 200 μL) | (B) #62: MDA-MB-231 N-Rh-PE (%): 5.36 (50 ng / 200 μL) | (B) #63: MDA-MB-231 N-Rh-PE (%): 75.39 (50 ng / 200 μL) | (B) #64: MDA-MB-231 N-Rh-PE (%): 73.49 (50 ng / 200 μL) | (B) #65: MDA-MB-231 N-Rh-PE (%): 81.65 (50 ng / 200 μL) | (B) #66: MDA-MB-231 N-Rh-PE (%): 81.79 (50 ng / 200 μL) | (B) #67: MDA-MB-231 N-Rh-PE (%): 89.82 (50 ng / 200 μL) | (B) SMRwt: MDA-MB-231 N-Rh-PE (%): 6.11 (50 ng / 200 μL) | (B) SMRmut: MDA-MB-231 N-Rh-PE (%): 100 (50 ng / 200 μL)
To identify peptide sequences within Mortalin that modulate extracellular vesicle (EV) secretion, a panel of scanning peptides was synthesized and tested in Jurkat T cells. The peptides, listed in Table 1, were custom-synthesized with an average purity of 75% and used in transfection assays to evaluate their impact on EV release. Jurkat T cells (3 × 10^5) were co-transfected with 50 ng of individual Mortalin peptides […] 250 ng of wild-type Nef-GFP plasmid using Chariot™ transfection reagent. Transfection efficiency was confirmed by fluorescence microscopy after 48 h. EV secretion was assessed by measuring GFP fluorescence in the culture media, and statistical analysis was performed using unpaired two-factor t-tests (p < 0.05). Panel of Mortalin scanning peptides developed and tested for their effect EV secretion and Table S2. Mortalin Scanning Peptides Used in Transfection Assays, see the Supplementary Information. […]

MDA-MB-231 cells = assay: Tumor exosome secretion, Mortalin scanning peptides (Figure 5B), MDA-MB-231; assay type: cell-based, human; details: 50 ng / 200 μL peptide, transfected, 48 h, N-Rh-PE fluorescence in media; SMRmut = 100; mean of three independent experiments
Method: as §1
To assess the effect of Mortalin-derived peptides on tumor exosome secretion, MDA-MB-231 breast cancer cells were transfected with the same panel of scanning peptides and labeled with N-Rh-PE to track exosome release. Following incubation, N-Rh-PE fluorescence in the culture media was measured as a proxy for extracellular exosome levels. SMRwt and SMRmut peptides were again used as controls. […] Statistical analysis confirmed significant differences: SMRmut vs. #61 (p < 7.20 × 10^−7), SMRmut vs. #62 (p < 5.70 × 10^−7), and SMRmut vs. SMRwt (p < 5.96 × 10^−7).

Nef protein = Nef protein (Human immunodeficiency virus type 1 group M subtype B, UniProt P03404); assay: SPR binding of Mortalin peptides to immobilized Nef; parameters: species or system HIV-1; details: for kon: pH 7.4, read-out: ka (Nef)
Method: Figure 8 depicts the SPR results for Mortalin peptides binding to Nef. The Nef protein was immobilized as a ligand on the chip surface, and the peptides were used as analytes to flow into the buffer solution.
(§2) SPR experiments were conducted using a Biacore T200 instrument (Cytiva, Marlborough, MA, USA). CM5 sensor chips (Cytiva) were used to immobilize proteins and run subsequent binding assays at 25 °C. To investigate the direct binding of Nef and SMR peptides to Vimentin and Mortalin and SMR competition studies, both proteins were immobilized as ligands on the active flow cells (FCs) using standard amine coupling chemistry. One reference FC was prepared using the same surface chemistry, and no proteins were immobilized onto this reference FC. Vimentin was immobilized to a level of ~2500 RU to 7200 RU in the presence of 4 mM of HCl and Mortalin to a level of ~11,900 RU to 13,200 RU in the presence of 10 mM of sodium acetate buffer at pH 4.5. Analytes were then injected (Nef, SMR peptides, Mortalin peptides, and mixtures of […]). One 20 s pulse of 1:500 H3PO4 (H3PO4:ddH2O) was injected for surface regeneration. To investigate the direct binding of Mortalin peptides to Nef, Nef was immobilized as a ligand to ~450 RU using thiol coupling chemistry. A reference FC was created using a method similar to the one above. Mortalin peptides were then injected as analytes. One 20 s pulse of 1 M NaCl was injected for surface regeneration. HBS-P (10 mM Hepes, pH 7.4; 150 mM NaCl; 0.05% surfactant P20) was used as the immobilization running buffer during the immobilization of all ligands. HBS-P was also used to dilute analytes and as a running buffer during all analyte–ligand binding assays. SPR data used for analysis was both blank (signals due to HBS-P only) and reference-subtracted (signals corresponding to reference FCs). Sensorgrams recorded for kinetics analyses were fitted to a 1:1 binding model using the Biacore T200 evaluation software version 3.2.1. GraphPad Prism version 10.4.0 was used to plot all graphs.

MDA-MB-231 BC cells = assay: Exosome secretion by N-Rh-PE (Figure 4A), MDA-MB-231; assay type: cell-based, human; details: 100 ng/mL peptide, 24 h, no transfection, N-Rh-PE fluorescence, three independent experiments
Method: (§3) Figure 4 Effects of SMR, Mortalin, and Vimentin peptides on tumor cell exosome secretion in MDA-MB-231 and MCF-7 breast cancer cells. MDA-MB-231 and MCF-7 BC cells (200 µL, 1 × 10^4 cells/mL) were seeded into a 96-well plate and treated with 100 ng/mL of either wild-type (wt) or mutant (mut) peptides of SMR, Mortalin, or Vimentin. Treatments were performed in RPMI-1640 medium without transfection, and cells were incubated at 37 °C for 24 h. The cells were then treated with 0.5 µM/mL of N-Rh-PE, incubated at 4 °C for 1 h, and washed with PBS. Fresh medium was also added. The cultures were incubated at 37 °C for an additional 24 h. N-Rh-PE refers to N-(Lissamine Rhodamine B sulfonyl) phosphatidyl-ethanolamine, a fluorescent lipid dye commonly used to label membranes and track vesicle trafficking. […] Exosome secretion was assessed by measuring the amount of N-Rh-PE, which corresponds to the number of exosomes released into the extracellular medium. Bar graphs show the relative exosome release level. Data represent the mean ± SD of three independent experiments.

MCF-7 BC cells = assay: Exosome secretion by N-Rh-PE (Figure 4B), MCF-7; assay type: cell-based, human; details: 100 ng/mL peptide, 24 h, no transfection, N-Rh-PE fluorescence, three independent experiments
Method: as §3

[1] = molecular target: T1, Recombinant Human GRP75/HSPA9B/Mortalin His Protein (Homo sapiens, UniProt P38646); assay: biochemical; assay type: binding
T1 construct: His; purchased Novus Biologicals, LLC/R&D Systems NBC1-18380
T1 sequence (P38646 47-679): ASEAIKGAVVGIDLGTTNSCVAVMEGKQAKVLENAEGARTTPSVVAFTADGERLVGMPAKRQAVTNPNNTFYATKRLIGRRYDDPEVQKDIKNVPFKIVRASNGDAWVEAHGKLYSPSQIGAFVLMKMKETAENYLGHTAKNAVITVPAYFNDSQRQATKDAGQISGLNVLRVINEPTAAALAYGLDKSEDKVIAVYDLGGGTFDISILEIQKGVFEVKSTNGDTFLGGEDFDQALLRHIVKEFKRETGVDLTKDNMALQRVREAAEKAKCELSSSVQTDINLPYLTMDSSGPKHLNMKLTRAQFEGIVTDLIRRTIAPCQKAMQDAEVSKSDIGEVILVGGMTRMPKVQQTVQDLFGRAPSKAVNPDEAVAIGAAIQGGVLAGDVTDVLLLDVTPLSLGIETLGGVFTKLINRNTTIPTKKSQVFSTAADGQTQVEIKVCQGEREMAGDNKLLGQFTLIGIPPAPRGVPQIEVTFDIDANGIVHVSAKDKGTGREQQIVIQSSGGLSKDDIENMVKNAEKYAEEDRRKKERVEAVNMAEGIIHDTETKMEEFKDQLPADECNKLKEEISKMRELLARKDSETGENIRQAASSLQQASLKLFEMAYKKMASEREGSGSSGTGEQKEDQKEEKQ
Source text: (§4) We conducted SPR experiments to characterize and quantify the direct binding interactions between Nef and SMR peptides (the analytes) and the target proteins, Vimentin and Mortalin (the immobilized ligands). We did so by injecting the analytes at various concentrations over the chip surface with the immobilized ligands.
(§5) Recombinant Human Vimentin Protein, CF (catalog # 2105-VI-100), Recombinant Human GRP75/HSPA9B/Mortalin His Protein (catalog # NBC1-18380), and Recombinant Human HSPA8/HSC71/Hsc70 His Protein (Catalog # NBPI-30278) were purchased from Novus Biologicals, LLC/R&D Systems, Centennial, CO, USA. These proteins were used for SPR.
as §2

[2] = molecular target: T2, Recombinant Human Vimentin Protein (Homo sapiens, UniProt P08670); assay: biochemical; assay type: binding
T2 construct: purchased Novus Biologicals, LLC/R&D Systems 2105-VI-100
T2 sequence (P08670 whole entry): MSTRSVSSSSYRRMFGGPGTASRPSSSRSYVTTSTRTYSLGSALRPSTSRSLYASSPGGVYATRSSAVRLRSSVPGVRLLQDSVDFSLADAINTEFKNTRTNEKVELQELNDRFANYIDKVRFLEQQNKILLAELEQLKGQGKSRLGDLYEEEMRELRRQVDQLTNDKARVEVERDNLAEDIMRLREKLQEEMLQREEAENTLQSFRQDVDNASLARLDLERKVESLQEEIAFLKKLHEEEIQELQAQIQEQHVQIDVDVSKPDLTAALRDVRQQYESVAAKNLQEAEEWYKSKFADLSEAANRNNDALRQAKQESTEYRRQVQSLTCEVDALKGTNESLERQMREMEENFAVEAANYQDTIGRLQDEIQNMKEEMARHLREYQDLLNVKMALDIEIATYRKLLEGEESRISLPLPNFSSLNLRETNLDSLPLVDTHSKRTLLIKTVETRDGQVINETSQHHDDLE
Source text: as §4, §5, §2

Substance | Jurkat GFP (exNef secretion) (Jurkat T cells) | MDA-MB-231 N-Rh-PE (exosome secretion) (MDA-MB-231 cells) | further results
AVNMAEGIIHDTETKMEEFK [#59, Mortalin scanning peptide 59] | 95.49% | 67.81% | –
AYKKMASEREGSGSSGTGEQ [#66, Mortalin scanning peptide 66] | 92.28% | 81.79% | –
DTETKMEEFKDQLPADECNK [#60, Mortalin scanning peptide 60] | 98.25% | 72.32% | –
EDRRKKERVEAVNMAEGIIH [#58, Mortalin scanning peptide 58] | 91.89% | 68.11% | –
ENIRQAASSLQOASLKLFEM [#64, Mortalin scanning peptide 64] | 95.37% | 73.49% | –
GGLSKDDIENMVKNAEKYAE [#56] | – | – | Kd (Nef protein): 76.9 µM; kon (Nef protein): 370 M⁻¹ s⁻¹
GSGSSGTGEQKEDQKEEKQ [#67, Mortalin scanning peptide 67] | 99.56% | 89.82% | –
LKEEISKMRELLARKDSETG [#62] | – | – | Kd (Nef protein): 1.9 µM; kon (Nef protein): 1970 M⁻¹ s⁻¹
LLARKDSETGENIRQAASSL [#63, Mortalin scanning peptide 63] | 98.02% | 75.39% | –
LYEEEMRE [VIM-wt, Vimentin-wt peptide (LYEEEMRE)] | – | – | exosome release vs untreated, in words (MDA-MB-231 BC cells): significantly decreased exosome release; p, UT vs. peptide, exosome release (MDA-MB-231 BC cells): < 0.00005; exosome release vs untreated, in words (MCF-7 BC cells): significantly decreased exosome release; p, UT vs. peptide, exosome release (MCF-7 BC cells): < 0.00005
MVKNAEKYAEEDRRKKERVE [#57, Mortalin scanning peptide 57] | 96.69% | 79.73% | –
QOASLKLFEMAYKKMASERE [#65, Mortalin scanning peptide 65] | 96.34% | 81.65% | –
VGFPV [SMRwt, ^66Val-Gly-Phe-Pro-Val^70] | – | – | Kd [1]: 20.7 µM; kon ([1]; pH 7.4, read-out: ka (Mortalin)): 671 M⁻¹ s⁻¹; Kd [2]: 6.63 µM; kon ([2]; pH 7.4, read-out: ka (Vimentin)): 6410 M⁻¹ s⁻¹
